Assay [1] concerns the target T1, Eukaryotic translation initiation factor 4E (Homo sapiens, UniProt P06730). In words: Competitive inhibition of human 10 his-tagged eIF4E extracted from Escherichia coli BL21 (DE3) cells incubated for 40 mins by fluorescence polarization assay. In general terms: Polarisation of emitted light reports the rotation of a fluorescent probe.
In assay [2] the test system is A2058. In words: Antiproliferative activity against human A2058 cells harbouring BRAF V600E mutant assessed as cell death at 50 uM incubated for 48 hrs by Celltiter-glo assay. It is filed as functional, cell-based.
For assay [3], the system named is A2058. Briefly: Antiproliferative activity against human A2058 cells harbouring BRAF V600E mutant assessed as cell death incubated for 48 hrs by Celltiter-glo assay. It is filed as functional, cell-based. Conditions: for EC50: A2058, 48 h; for Activity: dose 10-60 µM. On the technique in general: ATP-based viability assays read luminescence as a measure of living cells.

The target in assay [4] is T1, Eukaryotic translation initiation factor 4E. Briefly: Induction of thermal stabilization of eIF4E in human HeLa cell lysates incubated for 1 hr at 42 to 52 degreeC by CETSA based Western blot analysis. It is filed as subcellular.
The test system of assay [5] is A2058. Briefly: Downregulation of CCND3 expression in human A2058 cells incubated for 6 hrs by Western blot analysis. It is filed as functional, cell-based.
The subject of assay [6] is A2058. Briefly: Downregulation of CCND1 expression in human A2058 cells incubated for 6 hrs by Western blot analysis. The assay is classed as functional, cell-based. (In western blotting, separated proteins are transferred to a membrane and probed.)
Assay [7] relates to A2058. Briefly: Downregulation of ODC1 expression in human A2058 cells incubated for 6 hrs by Western blot analysis. The assay is classed as functional, cell-based.
For assay [8], the system named is A2058. Briefly: Effect on c-Myc expression in human A2058 cells incubated for 6 hrs by Western blot analysis. It is filed as functional, cell-based.
A further assay deals with A-375. In words: Antiproliferative activity against human A-375 cells incubated for 48 hrs by Celltiter-glo assay. The assay is classed as functional, cell-based. Conditions: A-375, 48 h.
In another assay the test system is SK-MEL-2. In words: Antiproliferative activity against human SK-MEL-2 cells at 1.0 to 1.8 uM incubated for 48 hrs by Celltiter-glo assay. Conditions: dose 1-1.8 µM. The assay is classed as functional, cell-based.

Active and inactive are the calls of the source. No cut-off for these calls is given here.

T1 sequence (P06730 whole entry): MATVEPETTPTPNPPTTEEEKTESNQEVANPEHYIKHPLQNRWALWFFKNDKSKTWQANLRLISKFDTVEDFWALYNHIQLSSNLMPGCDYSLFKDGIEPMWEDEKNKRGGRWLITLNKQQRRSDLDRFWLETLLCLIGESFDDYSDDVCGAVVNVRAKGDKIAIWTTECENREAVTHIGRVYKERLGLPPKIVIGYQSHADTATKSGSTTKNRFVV

In the case of `Nc1nc2c(c(=O)[nH]1)[n+](Cc1cc3cc(Cl)ccc3o1)cn2Cc1ccccc1CCP(=O)(O)O`, the IC50 – broadly, the concentration that inhibits the measured activity by half – in [1] came out at 17.2 µM.

Turning to `CC(C)(C)C(=O)OCOP(=O)(CCc1cccc(-n2c[n+](Cc3cc4cc(Cl)ccc4o3)c3c(=O)[nH]c(N)nc32)c1)OCOC(=O)C(C)(C)C`, the outcome in the assay on A2058 [2] was Active.

Turning to `CC(C)(C)C(=O)OCOP(=O)(CCc1ccccc1Cn1c[n+](Cc2cc3cc(Cl)ccc3o2)c2c(=O)[nH]c(N)nc21)OCOC(=O)C(C)(C)C`, in the assay on A2058 [3], the EC50 (in general, the concentration at which the effect is half-maximal) came out at 51.3 µM and the Activity result is “Dose-dependent-effect”.

Turning to `Nc1nc2c(c(=O)[nH]1)[n+](Cc1cc3cc(Cl)ccc3o1)cn2Cc1cccc(CCP(=O)(O)O)c1`, the outcome in [4] was Active. For the same compound, in assay [1], the IC50 was determined as 4.1 µM.

For the compound `CC(C)(C)C(=O)OCOP(=O)(OCOC(=O)C(C)(C)C)c1cccc(Cn2c[n+](Cc3cc4cc(Cl)ccc4o3)c3c(=O)[nH]c(N)nc32)c1`, the Activity entry in the assay with A2058 [2] is on record as “Active; Compound Found To Be Less Active”.

As for `CC(C)(C)C(=O)OCOP(=O)(CCc1cccc(Cn2c[n+](Cc3cc4cc(Cl)ccc4o3)c3c(=O)[nH]c(N)nc32)c1)OCOC(=O)C(C)(C)C`, the result with A2058 [5], with A2058 [6] and in the assay on A2058 [7] was Active. The result in the assay on A2058 [8] and in the assay with SK-MEL-2 was inactive. Moreover, the EC50 in the assay on A-375 amounted to 54 µM; with A2058 [3], 40 µM. In addition, the results for the Activity result in the assay on A2058 [2] and in the assay with A2058 [3] were “Active; Compound Showed Near Complete Cell Death” and “Dose-dependent-effect”, respectively.

In the case of `CC(C)(C)C(=O)OCOP(=O)(CCc1ccc(Cn2c[n+](Cc3cc4cc(Cl)ccc4o3)c3c(=O)[nH]c(N)nc32)cc1)OCOC(=O)C(C)(C)C`, in the assay on A2058 [3], the result was inactive.

For the compound `CC(C)(C)C(=O)OCOP(=O)(Cc1cccc(Cn2c[n+](Cc3cc4cc(Cl)ccc4o3)c3c(=O)[nH]c(N)nc32)c1)OCOC(=O)C(C)(C)C`, the Activity result in the assay on A2058 [2] is on record as “Active; Compound Found To Be Less Active”.

(Values after ChEMBL document CHEMBL6096716, “Second-Generation Cap Analogue Prodrugs for Targeting Aberrant Eukaryotic Translation Initiation Factor 4E Activity in Cancer” (ACS Med Chem Lett, 2025).)
